Assay results as given in patent US7317028B2, “Cell differentiation inducer” (Schering Aktiengesellschaft, priority 1996, dated 2008).

Assays:
[1] = system: A2780 cells; experiment: Test for induction of differentiation in A2780 cells (ALP activity, ALPmin); type: cell-based, human; conditions: A2780 cells, 3 days incubation, minimum concentration of the drug inducing increase of ALP activity
Experimental: Increase of alkaline phosphatase (ALP) activity is known as an indicator for differentiation of human colon cancer cells. […] Thus, differentiation inducing action was evaluated using ALP activity as an indicator.
To each well of a 96-well plate was placed 0.1 mL of A2780 cells (15,000 cells/well) and the next day was added 0.1 mL of a sequential dilute of test solution with the medium. […] The reaction was quenched with 0.05 mL/well of 3N sodium hydroxide aq. For each well, an absorbance at 405 nm was measured to determine the minimum concentration of the drug inducing increase of ALP activity (ALPmin).

Row | melting point | Structure (SMILES) | minimal effective concentration ([1]; Homo sapiens, 72 h) [µM] | minimal effective concentration [1] [µM]
1 | 209 to 210 °C | Nc1ccccc1NC(=O)c1ccc(CNC(=O)c2ccc3ncccc3c2)cc1 [Example 37, N-(2-aminophenyl)-4-[N-(quinolin-6-yl)carbonylaminomethyl]benzamide] | 1 | 
2 | 210 to 212 °C (dec.) | Cl.Nc1ccccc1NC(=O)c1ccc(CNC(=O)c2ccccc2[N+](=O)[O-])cc1 [Example 3, N-(2-aminophenyl)-4-[N-(2-nitrobenzoyl)aminomethyl]benzamide hydrochloride] | 3 | 
3 | 176 to 178 °C (dec.) | Nc1ccccc1NC(=O)c1ccc(CNC(=O)c2cccnc2Cl)cc1 [Example 17, N-(2-aminophenyl)-4-[N-(2-chloronicotinoyl)aminomethyl]benzamide] | 3 | 
4 | 144 to 148 °C | CC(OCc1cccnc1)C(=O)Nc1ccc(C(=O)Nc2ccccc2N)cc1 (centres unmarked) [Example 131, N-(2-aminophenyl)-4-[N-[2-(pyridin-3-yl)methoxypropionyl]amino]benzamide] | 0.3 | 
5 | 208 to 210 °C (dec.) | COc1cc(C(=O)NCc2ccc(C(=O)Nc3ccccc3N)cc2)cc(OC)c1OC [Example 7, N-(2-aminophenyl)-4-[N-(3,4,5-trimethoxybenzoyl)aminomethyl]benzamide] | 1 | 
6 | 197 °C (dec.) | Nc1ccccc1NC(=O)c1ccc(CNC(=O)c2ccco2)cc1 [Example 22, N-(2-aminophenyl)-4-[N-(furan-2-yl)carbonylaminomethyl]benzamide] |  | 
7 | 204 to 206 °C | Nc1ccccc1NC(=O)c1ccc(CNC(=O)CC(=O)c2cccnc2)cc1 [Example 34, N-(2-aminophenyl)-4-[N-[3-(pyridin-3-yl)-1,3-dioxopropyl]aminomethyl]benzamide] | 0.1 | 
8 | 182 to 185 °C | COc1cccc(C(=O)NCc2ccc(C(=O)Nc3ccccc3N)cc2)c1 [Example 5, N-(2-aminophenyl)-4-[N-(3-methoxybenzoyl)aminomethyl]benzamide] | 1 | 
9 | 182 to 189 °C (dec.) | Cl.Cl.Nc1ccccc1NC(=O)c1ccc(NC(=O)Cc2cccnc2)cc1 [Example 111, N-(2-aminophenyl)-4-[(pyridin-3-yl)acetylamino]benzamide dihydrochloride] | 3 | 
10 | 216 to 220 °C (dec.) | Nc1ccccc1NC(=O)c1ccc(CNC(=O)c2ccc[nH]2)cc1 [Example 23, N-(2-aminophenyl)-4-[N-(pyrrol-2-yl)carbonylaminomethyl]benzamide] | 1 | 
11 | 183 to 186 °C | Nc1ccccc1NC(=O)c1ccc(CNC(=O)CCc2cccnc2)cc1 [Example 30, N-(2-aminophenyl)-4-[N-[3-(pyridin-3-yl)propionyl]aminomethyl]benzamide] | 0.1 | 
12 | 237 to 240 °C (dec.) | Nc1ccccc1NC(=O)c1ccc(C(=O)NCCc2ccccc2)cc1 [Example 133, N-(2-aminophenyl)-4-[N-(2-phenylethyl)amino]carbonylbenzamide] | 3 | 
13 | 201 to 202 °C | O=C(Cc1cccnc1)NCc1ccc(C(=O)Nc2ccccc2O)cc1 [Example 42, N-(2-hydroxyphenyl)-4-[N-(pyridin-3-yl)acetylaminomethyl]benzamide] | 10 | 
14 | 219 to 226 °C (dec.) | Nc1ccc(CC(=O)Nc2ccc(C(=O)Nc3ccccc3N)cc2)cc1 [Example 106, N-(2-aminophenyl)-4-[(4-aminophenylacetyl)amino]benzamide] | 1 | 
15 | 171 to 173 °C | Nc1ccccc1NC(=O)c1ccc(NC(=O)COCc2ccccn2)cc1 [Example 126, N-(2-aminophenyl)-4-[N-(pyridin-2-yl)methoxyacetylamino]benzamide] | 3 | 
16 | 139 to 141 °C | Nc1ccccc1NC(=O)c1ccc(COC(=O)NCc2cccnc2)cc1 [Example 98, N-(2-aminophenyl)-4-[(pyridin-3-yl)methylaminocarbonyloxymethyl]benzamide] | 0.1 | 
17 | 195 to 198 °C | Nc1ccccc1NC(=O)c1ccc(CNC(=O)OCc2ccc(-n3ccnc3)cc2)cc1 [Example 50, N-(2-aminophenyl)-4-[N-(4-(imidazol-1-yl)benzyl)oxycarbonylaminomethyl]benzamide] | 1 | 
18 | 199 to 201 °C | Nc1ccccc1NC(=O)c1ccc(CNC(=O)COc2cncc(Cl)c2)cc1 [Example 32, N-(2-aminophenyl)-4-[N-(5-chloropyridin-3-yl)oxyacetylaminomethyl]benzamide] | 3 | 
19 | 169 to 170 °C | COc1cncc(COC(=O)NCc2ccc(C(=O)Nc3ccccc3N)cc2)c1 [Example 76, N-(2-aminophenyl)-4-[N-(5-methoxypyridin-3-yl)methoxycarbonylaminomethyl]benzamide] | 1 | 

Row | melting point | Structure (SMILES) | minimal effective concentration ([1]; Homo sapiens, 72 h) [µM] | minimal effective concentration [1] [µM]
20 | 173 to 178 °C (dec.) | Nc1ccccc1NC(=O)c1ccc(CNC(=O)c2ccccn2)cc1 [Example 12, N-(2-aminophenyl)-4-(N-picolinoylaminomethyl)benzamide] |  | 
21 | 155 to 155.5 °C | Cc1ccc(O)c(NC(=O)c2ccc(CNC(=O)OCc3cccnc3)cc2)c1 [Example 84, N-(2-hydroxy-5-methylphenyl)-4-[N-(pyridin-3-yl)methoxycarbonylaminomethyl]benzamide] |  | 
22 | 165 to 167 °C (dec.) | Nc1ccccc1NC(=O)c1ccc(NC(=O)CCCc2cccnc2)cc1 [Example 118, N-(2-aminophenyl)-4-[[4-(pyridin-3-yl)butanoyl]amino]benzamide] |  | 
23 | 209 °C (dec.) | Nc1ccccc1NC(=O)c1ccc(CNC(=O)Oc2cccnc2)cc1 |  | 
24 | 173 to 174 °C | Nc1ccccc1NC(=O)Cc1cc2cc(NC(=O)OCc3cccnc3)ccc2o1 [Example 87, N-(2-aminophenyl)-5-[(pyridin-3-yl)methoxycarbonyl]aminobenzofuran-2-carboxyamide] |  | 
25 | 171 to 173 °C (dec.) | CC(Oc1cccnc1)C(=O)NCc1ccc(C(=O)Nc2ccccc2N)cc1 (centres unmarked) [Example 47, N-(2-aminophenyl)-4-[N-[2-(pyridin-3-yl)oxy]propionylaminomethyl]benzamide] |  | 
26 | 207 °C (dec.) | Nc1ccccc1NC(=O)c1ccc(CNC(=O)c2cnccn2)cc1 [Example 20, N-(2-aminophenyl)-4-[N-(pyrazin-2-yl)carbonylaminomethyl]benzamide] |  | 
27 | 192 to 195 °C | Nc1ccccc1NC(=O)c1ccc(CNC(=O)OCC2=CN(c3ccccc3)CO2)cc1 [Example 62, N-(2-aminophenyl)-4-[N-(3-phenyloxazol-5-yl)methoxycarbonylaminomethyl]benzamide] |  | 
28 | 230 °C | Nc1ccccc1NC(=O)c1ccc(CNc2c(NCc3cccnc3)c(=O)c2=O)cc1 [Example 144, N-(2-aminophenyl)-4-[N-[3-[(pyridin-3-yl)methylamino]cyclobuten-1,2-dion-4-yl]aminomethyl]benzamide] |  | 
29 | 234 to 237 °C (dec.) | Nc1ccccc1NC(=O)c1ccc(CNC(=O)c2ccncc2)cc1 [Example 19, N-(2-aminophenyl)-4-(N-isonicotinoylaminomethyl)benzamide] |  | 
30 |  | Nc1ccccc1NC(=O)c1ccc(N2CC(COc3ccc([N+](=O)[O-])cc3)OC2=O)cc1 (centres unmarked) [Example 137, N-(2-aminophenyl)-4-[5-(4-nitrophenoxy)methyl-1,3-oxazolin-2-on-3-yl-yl]benzamide] |  | 1
31 |  | Cn1cccc1C(=O)NCc1ccc(C(=O)Nc2ccccc2N)cc1 [Example 24, N-(2-aminophenyl)-4-[N-(N′-methyl-1H-pyrrol-2-yl)carbonylaminomethyl]benzamide] |  | 1
32 |  | Nc1ccccc1NC(=O)c1ccc(-n2cc(COc3cccnc3)oc2=O)cc1 [Example 139, N-(2-aminophenyl)-4-[5-(pyridin-3-yl)oxymethyl-1,3 oxazolin-2-on-3-yl]benzamide] | 0.3 | 
33 |  | Nc1ccccc1NC(=O)c1ccc(NC(=O)CCCc2ccccc2)cc1 [Example 101, N-(2-aminophenyl)-4-[(4-phenylbutanoyl)amino]benzamide] | 3 | 
34 | 202 to 205 °C (dec.) | Nc1ccccc1NC(=O)c1ccc(CNC(=O)c2cccs2)cc1 [Example 21, N-(2-aminophenyl)-4-[N-(thiophen-2-yl)carbonylaminomethyl]benzamide] |  | 
35 | 193 to 196 °C | Nc1ccccc1NC(=O)c1ccc(CNC(=O)c2cccnc2)cc1 [Example 14, N-(2-aminophenyl)-4-(N-nicotinoylaminomethyl)benzamide] |  | 
36 |  | Nc1nc(CC(=O)NCc2ccc(C(=O)Nc3ccccc3N)cc2)cs1 [Example 36, N-(2-aminophenyl)-4-[N-(2-aminothiazol-4-yl)acetylaminomethyl]benzamide] | 10 | 
37 |  | Nc1ccccc1NC(=O)c1ccc(CN(Cc2cccnc2)C(=O)OCc2cccnc2)cc1 [Example 79, N-(2-aminophenyl)-4-[N-(pyridin-3-yl)methyl-N-(pyridin-3-yl)methoxycarbonylaminomethyl]benzamide] | 0.1 | 
38 |  | Nc1ccccc1NC(=O)c1ccc(CNC(=S)Nc2cccc([N+](=O)[O-])c2)cc1 [Example 93, N-(2-aminophenyl)-4-[N′-(3-nitrophenyl)thioureidomethyl]benzamide] |  | 3
